Molecular target: APSR (Mycobacterium tuberculosis, UniProt P9WIK3)
Test: standard radioactive assay measuring APSR reduction of 35S-labeled APS substrate
Type: biochemical, M. tuberculosis
Settings: for inhibition at 100 µM: read-out: inhibition of APSR activity, tested at 100 μM

Sequence of APSR (P9WIK3 whole entry): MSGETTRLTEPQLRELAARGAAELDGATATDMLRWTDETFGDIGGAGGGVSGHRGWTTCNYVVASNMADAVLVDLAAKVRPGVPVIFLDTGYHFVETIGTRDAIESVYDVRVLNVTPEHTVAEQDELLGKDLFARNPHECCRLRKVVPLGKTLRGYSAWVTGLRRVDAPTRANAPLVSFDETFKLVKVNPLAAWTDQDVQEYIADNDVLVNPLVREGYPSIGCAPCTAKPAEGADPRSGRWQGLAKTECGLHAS

SMILES | activity against APSR (in words) | inhibition at 100 µM [%]
O=C1c2ccccc2-c2ccc([N+](=O)[O-])cc21 [2-nitro-9-fluorenone] | neither 9-fluorenone nor 2-nitro-9-fluorenone, which are closely related to 133896, exhibited significant activity | 
O=C1c2ccccc2-c2ccccc21 [9-fluorenone] | neither 9-fluorenone nor 2-nitro-9-fluorenone, which are closely related to 133896, exhibited significant activity | 
O=C1c2ccccc2-c2cc([N+](=O)[O-])c([N+](=O)[O-])cc21 [NSC 133896] |  | > 50
O=C(O)CCc1nnc2c3ccccc3c3ccccc3c2n1 [NSC 327704] |  | > 50

Reference: article PMC2639213 (Journal of medicinal chemistry, 2008)
